“And” between values parts separate entries of the source, which are not always exact repeats. Equal entries are not always repeated.
Assays:
[1] = Single oral pharmacokinetics of the HCl salt in suspension in fed and fasted male rats; format: in vivo, male Sprague Dawley rats; details: 30 mg/kg; for AUC0-INF: HCl salt suspension; for Clast / F / Tmax / t1/2 / tlast: HCl salt
Description: (§1) Non-validated research grade assays were used for these analyses. All pharmacokinetic studies were conducted using fed animals unless otherwise specified.
The tmax following oral administration of the HCl salt was 3.7 hours under fed and 3.3 hours under fasted conditions, which was similar to the tmax of 3.0 to 4.7 hours following oral administration of Compound 1 under fed conditions.

[2] = Single oral pharmacokinetics of the HCl salt in suspension in male dogs; format: in vivo, male beagle dogs; details: for AUC0-INF / Cmax: mean (SD)
Description: as §1
At nominal dose levels of 5 to 200 mg/kg in 0.5% polysorbate 80/0.5% methylcellulose/water, exposure was high and relatively dose proportional to 200 mg/kg (Table 5). […] Bioavailability ranged from 24% to 49% at all dose levels studied and in both suspension formulations.

[3] = Stability of 6 mg/mL aqueous methylcellulose-polysorbate 80 suspension (HPLC, XRPD, NMR); format: physicochemical; details: 0.5% methylcellulose/0.5% polysorbate 80; HCl salt quickly converted to Compound 1 at T(0)
Description: Methylcellulose (0.5 g) was combined with 99.0 g of purified water in a beaker and stirred in a 60-70° C. water bath for 30′-1 hr. The solution was stirred in a 0° C. ice/water bath for another 30′ or until clear. Polysorbate 80 (0.5 g) was added and stirring at room temperature followed for 30′-1 hr or until a clear solution was obtained.
The desired amount of 0.5% methylcellulose and 0.5% polysorbate 80 stock solution for making a 6 mg/mL based on free base (6.48 mg/mL based on HCl salt) was transferred into the vial and sonicated for 20 minutes with alternate stirring for 1-2 minutes. The solution was homogenized for approximately 1-2 minutes.
As with 0.5% methylcellulose formulation prepared previously, the HCl salt was quickly converted to Compound 1 in Form I at T(0) resulting in a crystalline free form suspension as shown by XRPD (FIG. 10) and confirmed by ^1H NMR analysis (FIGS. 11-13). Additionally, the solid form in suspension at T(0) was recovered an subjected to HPLC analysis: […]

[4] = Solubility (statement); format: physicochemical; details: water
[5] = Oral pharmacokinetics of Compound 1 and HCl salt in suspension in male dogs at 200 mg/kg
[6] = 0.5% polysorbate 80/0.5% MC/Water, 5 mg/kg
[7] = 0.5% polysorbate 80/0.5% MC/Water, 25 mg/kg
[8] = 0.5% polysorbate 80/0.5% MC/Water, 50 mg/kg
[9] = 0.5% polysorbate 80/0.5% MC/Water, 100 mg/kg
[10] = 0.5% polysorbate 80/0.5% MC/Water, 200 mg/kg

Cc1ccc(NC(=O)C2(c3ccc4c(c3)OC(F)(F)O4)CC2)nc1-c1cccc(C(=O)O)c1.Cl [HCl salt, 3-(6-(1-(2,2-difluorobenzo[d][1,3]dioxol-5-yl)cyclopropanecarboxamido)-3-methylpyridin-2-yl)benzoic acid.HCl]
AUC0-INF ([1]; Fasted): 383 µg·h/mL
AUC0-INF ([1]; Fed): 340 µg·h/mL
Clast ([1]; Fasted): 60 ng/mL
F ([1]; Fasted): >100%
Tmax ([1]; Fasted): 3.3 h and 3.33 h
t1/2 ([1]; Fasted): 5.36 h
tlast ([1]; Fasted): 48 h
Clast ([1]; Fed): 240 ng/mL
F ([1]; Fed): >100%
Tmax ([1]; Fed): 3.7 h and 3.67 h
t1/2 ([1]; Fed): 6.07 h
tlast ([1]; Fed): 48 h
F ([2]; 0.5% MC/Water, 1 mg/kg): 35%
T1/2 ([2]; 0.5% MC/Water, 1 mg/kg): 6.0 h
Tmax ([2]; 0.5% MC/Water, 1 mg/kg): 0.83 h
AUC0-INF ([2]; 0.5% MC/Water, 1 mg/kg): 2.2 (0.5) hr · μg/mL
Cmax ([2]; 0.5% MC/Water, 1 mg/kg): 0.37 (0.2) μg/mL
F ([2]; 0.5% MC/Water, 3 mg/kg): 49%
T1/2 ([2]; 0.5% MC/Water, 3 mg/kg): 5.3 h
Tmax ([2]; 0.5% MC/Water, 3 mg/kg): 1.7 h
AUC0-INF ([2]; 0.5% MC/Water, 3 mg/kg): 9.3 (4.8) hr · μg/mL
Cmax ([2]; 0.5% MC/Water, 3 mg/kg): 1.1 (0.5) μg/mL
F ([2]; 0.5% MC/Water, 10 mg/kg): 40%
T1/2 ([2]; 0.5% MC/Water, 10 mg/kg): 8.8 h
Tmax ([2]; 0.5% MC/Water, 10 mg/kg): 1.0 h
AUC0-INF ([2]; 0.5% MC/Water, 10 mg/kg): 28.4 (12.8) hr · μg/mL
Cmax ([2]; 0.5% MC/Water, 10 mg/kg): 8.9 (7.2) μg/mL
F [2, 6]: 24%
T1/2 [2, 6]: 7.0 h
Tmax [2, 6]: 1.0 h
AUC0-INF [2, 6]: 11.0 (3.6) hr · μg/mL
Cmax [2, 6]: 3.0 (0.5) μg/mL
F [2, 7]: 41%
T1/2 [2, 7]: 5.9 h
Tmax [2, 7]: 2.0 h
AUC0-INF [2, 7]: 56.8 (22.1) hr · μg/mL
Cmax [2, 7]: 18.0 (3.7) μg/mL
F [2, 8]: 27%
T1/2 [2, 8]: 4.9 h
Tmax [2, 8]: 1.7 h
AUC0-INF [2, 8]: 63.4 (22.9) hr · μg/mL
Cmax [2, 8]: 21.0 (7.1) μg/mL
F [2, 9]: 46%
T1/2 [2, 9]: 5.4 h
Tmax [2, 9]: 1.7 h
AUC0-INF [2, 9]: 268 (123) hr · μg/mL
Cmax [2, 9]: 54.4 (6.8) μg/mL
F [2, 10]: 30%
T1/2 [2, 10]: 5.9 h
Tmax [2, 10]: 2.3 h
AUC0-INF [2, 10]: 523 (46.8) hr · μg/mL
Cmax [2, 10]: 101 (30.2) μg/mL
physical stability of suspension [3]: not physically stable
solubility in water [4]: sparingly soluble
Clast ([5]; HCl salt): 128 ng/mL
F ([5]; HCl salt): 53%
Tmax ([5]; HCl salt): 2.5 h
t1/2 ([5]; HCl salt): 5.5 h
tlast ([5]; HCl salt): 48 h
AUC0-INF ([5]; HCl salt suspension): 755 µg·h/mL
